Patent US8343959B2, “N-phenyl-(piperazinyl or homopiperazinyl)-benzenesulfonamide or benzenesulfonyl-phenyl-(piperazine or homopiperazine) compounds suitable for treating disorders that respond to modulation of the serotonin 5-HT6 receptor” (Abbott GmbH & Co. KG, priority 2009, dated 2013)
Structures can show the parent of a compound that is named as a salt.

What follows are molecules tested against T1, h-5-HT6 receptor (Homo sapiens, UniProt P50406) (assay: 5-HT6 receptor binding assay (displacement of [3H]-LSD)). Details: membranes of HEK293 cells expressing h-5-HT6 receptor, 1 nM [3H]-LSD; read-out: Ki (5HT6).
T1 construct: expressed in transfected cells
T1 sequence (P50406 whole entry): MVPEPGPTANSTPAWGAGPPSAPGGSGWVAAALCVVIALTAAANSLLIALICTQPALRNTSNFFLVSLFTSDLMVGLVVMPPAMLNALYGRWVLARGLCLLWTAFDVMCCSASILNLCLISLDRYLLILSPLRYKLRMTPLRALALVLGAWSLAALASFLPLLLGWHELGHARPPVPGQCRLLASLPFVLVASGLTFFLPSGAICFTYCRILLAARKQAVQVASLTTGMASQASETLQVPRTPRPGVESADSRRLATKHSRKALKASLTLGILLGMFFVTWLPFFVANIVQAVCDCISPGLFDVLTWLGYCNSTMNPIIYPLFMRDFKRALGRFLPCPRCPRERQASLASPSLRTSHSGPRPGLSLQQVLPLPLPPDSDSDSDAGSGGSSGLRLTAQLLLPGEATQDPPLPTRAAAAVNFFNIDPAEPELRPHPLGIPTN
`CCc1ccc(S(=O)(=O)Nc2cc(C)ccc2OC(F)F)cc1N1CCN(C)CC1` [Example 54, N-(2-Difluoromethoxy-5-methyl-phenyl)-4-ethyl-3-(4-methyl-piperazin-1-yl)-benzenesulfonamide] gave a Ki of under 10 nM. For `Cc1ccc(S(=O)(=O)Nc2ccccc2OC(F)F)cc1N1CCCN(C)CC1` [Example 100, N-(2-Difluoromethoxy-phenyl)-4-methyl-3-(4-methyl-[1,4]diazepan-1-yl)-benzenesulfonamide hydrochloride], the Ki was under 10 nM. `Cc1ccc(OC(F)F)c(NS(=O)(=O)c2ccc(C)c(N3CCN(C)CC3)c2)c1` [Example 92, N-(2-Difluoromethoxy-5-methyl-phenyl)-4-methyl-3-(4-methyl-piperazin-1-yl)-benzenesulfonamide hydrochloride] showed a Ki of under 10 nM. Molecule `Cc1ccc(NS(=O)(=O)c2ccc(C)c(N3CCCNCC3)c2)cc1OC(F)F` [Example 98, 3-[1,4]Diazepan-1-yl-N-(3-difluoromethoxy-4-methyl-phenyl)-4-methyl-benzenesulfonamide hydrochloride] has a Ki of under 50 nM. For `CCc1ccc(S(=O)(=O)Nc2cc(C)ccc2OC(F)F)cc1N1CCNCC1` [Example 65, N-(2-Difluoromethoxy-5-methyl-phenyl)-4-ethyl-3-piperazin-1-yl-benzenesulfonamide hydrochloride], the Ki was under 10 nM. `Cc1ccc(S(=O)(=O)Nc2ccccc2OC(F)F)cc1N1CCCNCC1` [Example 97, 3-[1,4]Diazepan-1-yl-N-(2-difluoromethoxy-phenyl)-4-methyl-benzenesulfonamide hydrochloride] was tested, and the Ki was under 10 nM. For `Cc1ccc(S(=O)(=O)Nc2ccc(F)cc2OC(F)F)cc1N1CCNCC1` [Example 74, N-(2-Difluoromethoxy-4-fluoro-phenyl)-4-methyl-3-piperazin-1-yl-benzenesulfonamide hydrochloride], the Ki was under 50 nM.
